# Legend:
# Italian ryegrass [1] = test: Test Example 5: herbicidal effect by foliage application, plastic box (Table 20, symbol K); format: in vivo, Italian ryegrass (Lolium multiflorum); settings: foliage application, 320 g/ha, three weeks after application
# How it was run: (§1)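 Sow seeds spot-wise in sterilized diluvial soil; cover with ~1.5 cm soil. Grow 14 days in greenhouse, 25° C. to 30° C. Spray foliage with emulsion diluted to predetermined amount. Rate effect after 3 weeks.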
# Chinese sprangletop = test: Test Example 3: herbicidal effect by foliage application, Wagner pot (Table 18, symbol D); format: in vivo, chinese sprangletop (Leptochloa chinensis); settings: 320 g/ha
# How it was run: (§2)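 Plants were sown in alluvial soil held under 0.1–0.5 cm standing water and grown 14 days in a greenhouse at 25–30 °C. An emulsifiable formulation, water-diluted to the set dose, was then sprayed onto the foliage, and effects were scored three weeks later using previously defined criteria.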
# blackgrass [2] = test: Test Example 4: herbicidal effect by soil treatment (Table 19, symbol J); format: in vivo, blackgrass (Alopecurus myosuroides); settings: amount of applied herbicide 320 g/ha
# How it was run: (§3)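 Soil-surface application: an emulsion agent diluted with water to the predetermined dose is sprayed uniformly over seeds lying under roughly 1.5 cm of sterilized diluvial soil. Boxes stay in a greenhouse at 25° C. to 30° C. Three weeks later, each species is graded on previously defined criteria.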
# Italian ryegrass [3] = test: Test Example 4: herbicidal effect by soil treatment (Table 19, symbol K); format: in vivo, Italian ryegrass (Lolium multiflorum); settings: amount of applied herbicide 320 g/ha
# How it was run: as §3
# southern crabgrass [4] = test: Test Example 5: herbicidal effect by foliage application, plastic box (Table 20, symbol F); format: in vivo, southern crabgrass (Digitaria ciliaris); settings: foliage application, 320 g/ha, three weeks after application
# How it was run: as §1
# barnyard grass [5] = test: Test Example 5: herbicidal effect by foliage application, plastic box (Table 20, symbol H); format: in vivo, barnyard grass (Echinochloa crus-galli); settings: foliage application, 320 g/ha, three weeks after application
# How it was run: as §1
# persian speedwell [6] = test: Test Example 5: herbicidal effect by foliage application, plastic box (Table 20, symbol R); format: in vivo, Persian speedwell (Veronica persica); settings: foliage application, 320 g/ha, three weeks after application
# How it was run: as §1
# lambsquarters [7] = test: Test Example 4: herbicidal effect by soil treatment (Table 19, symbol O); format: in vivo, lambsquarters (Chenopodium album); settings: amount of applied herbicide 320 g/ha
# How it was run: as §3
# windgrass [8] = test: Test Example 5: herbicidal effect by foliage application, plastic box (Table 20, symbol L); format: in vivo, windgrass (Apera spica-venti); settings: foliage application, 320 g/ha, three weeks after application
# How it was run: as §1
# persian speedwell [9] = test: Test Example 4: herbicidal effect by soil treatment (Table 19, symbol R); format: in vivo, Persian speedwell (Veronica persica); settings: amount of applied herbicide 320 g/ha
# How it was run: as §3
# southern crabgrass [10] = test: Test Example 4: herbicidal effect by soil treatment (Table 19, symbol F); format: in vivo, southern crabgrass (Digitaria ciliaris); settings: amount of applied herbicide 320 g/ha
# How it was run: as §3
# wild oat [11] = test: Test Example 5: herbicidal effect by foliage application, plastic box (Table 20, symbol I); format: in vivo, wild oat (Avena fatua); settings: foliage application, 320 g/ha, three weeks after application
# How it was run: as §1
# Japanese bulrush = test: Test Example 1: herbicidal activity, application before weed generation under submerged conditions (Table 16, symbol B); format: in vivo, Japanese bulrush (Schoenoplectus juncoides); settings: 320 g/ha applied herbicide
# How it was run: (§4)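 Emulsion formulation, water-diluted to set dose, was put onto the flooded surface (4 cm depth, alluvial soil) the same day weeds were sown and 2.5-leaf rice transplanted. After 3 weeks at 25-30 °C under glass, each species was rated 0 (≤5% kill) to 5 (≥90% kill).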
# redroot pigweed [12] = test: Test Example 5: herbicidal effect by foliage application, plastic box (Table 20, symbol N); format: in vivo, redroot pigweed (Amaranthus retroflexus); settings: foliage application, 320 g/ha, three weeks after application
# How it was run: as §1
# blackgrass [13] = test: Test Example 5: herbicidal effect by foliage application, plastic box (Table 20, symbol J); format: in vivo, blackgrass (Alopecurus myosuroides); settings: foliage application, 320 g/ha, three weeks after application
# How it was run: as §1
# windgrass [14] = test: Test Example 4: herbicidal effect by soil treatment (Table 19, symbol L); format: in vivo, windgrass (Apera spica-venti); settings: amount of applied herbicide 320 g/ha
# How it was run: as §3
# velvetleaf [15] = test: Test Example 5: herbicidal effect by foliage application, plastic box (Table 20, symbol M); format: in vivo, velvetleaf (Abutilon theophrasti); settings: foliage application, 320 g/ha, three weeks after application
# How it was run: as §1
# rice flat sedge = test: Test Example 3: herbicidal effect by foliage application, Wagner pot (Table 18, symbol E); format: in vivo, rice flat sedge (Cyperus iria); settings: 320 g/ha
# How it was run: as §2
# green foxtail [16] = test: Test Example 5: herbicidal effect by foliage application, plastic box (Table 20, symbol G); format: in vivo, green foxtail (Setaria viridis); settings: foliage application, 320 g/ha, three weeks after application
# How it was run: as §1
# oval-leafed pondweed = test: Test Example 1: herbicidal activity, application before weed generation under submerged conditions (Table 16, symbol C); format: in vivo, oval-leafed pondweed (Monochoria vaginalis); settings: 320 g/ha applied herbicide
# How it was run: as §4
# barnyard grass [17] = test: Test Example 4: herbicidal effect by soil treatment (Table 19, symbol H); format: in vivo, barnyard grass (Echinochloa crus-galli); settings: amount of applied herbicide 320 g/ha
# How it was run: as §3
# barnyard grass [18] = test: Test Example 3: herbicidal effect by foliage application, Wagner pot (Table 18, symbol H); format: in vivo, barnyard grass (Echinochloa crus-galli); settings: 320 g/ha
# How it was run: as §2
# late watergrass = test: Test Example 1: herbicidal activity, application before weed generation under submerged conditions (Table 16, symbol A); format: in vivo, late watergrass (Echinochloa oryzicola); settings: 320 g/ha applied herbicide
# How it was run: as §4
# chickweed [19] = test: Test Example 5: herbicidal effect by foliage application, plastic box (Table 20, symbol P); format: in vivo, common chickweed (Stellaria media); settings: foliage application, 320 g/ha, three weeks after application
# How it was run: as §1
# green foxtail [20] = test: Test Example 4: herbicidal effect by soil treatment (Table 19, symbol G); format: in vivo, green foxtail (Setaria viridis); settings: amount of applied herbicide 320 g/ha
# How it was run: as §3
# velvetleaf [21] = test: Test Example 4: herbicidal effect by soil treatment (Table 19, symbol M); format: in vivo, velvetleaf (Abutilon theophrasti); settings: amount of applied herbicide 320 g/ha
# How it was run: as §3
# wild oat [22] = test: Test Example 4: herbicidal effect by soil treatment (Table 19, symbol I); format: in vivo, wild oat (Avena fatua); settings: amount of applied herbicide 320 g/ha
# How it was run: as §3
# chickweed [23] = test: Test Example 4: herbicidal effect by soil treatment (Table 19, symbol P); format: in vivo, common chickweed (Stellaria media); settings: amount of applied herbicide 320 g/ha
# How it was run: as §3
# lambsquarters [24] = test: Test Example 5: herbicidal effect by foliage application, plastic box (Table 20, symbol O); format: in vivo, lambsquarters (Chenopodium album); settings: foliage application, 320 g/ha, three weeks after application
# How it was run: as §1
# redroot pigweed [25] = test: Test Example 4: herbicidal effect by soil treatment (Table 19, symbol N); format: in vivo, redroot pigweed (Amaranthus retroflexus); settings: amount of applied herbicide 320 g/ha
# How it was run: as §3
smiles,measurement,setting,value
CCCC(=O)Oc1c(C)nn(C)c(=O)c1-c1c(-c2cc(F)ccc2OC)sc2ccccc12 [1-059],"herbicidal effect grade, K: Italian ryegrass",Italian ryegrass [1],2 (Herbicidal rate of 20% or more and less than 40%)
same,"herbicidal effect on D (Chinese sprangletop), rating 0-5",Chinese sprangletop,1 (Herbicidal rate of 5% or more and less than 20%)
same,"herbicidal effect rating, J: blackgrass",blackgrass [2],3 (Herbicidal rate of 40% or more and less than 70%)
same,"herbicidal effect rating, K: Italian ryegrass",Italian ryegrass [3],1 (Herbicidal rate of 5% or more and less than 20%)
same,"herbicidal effect grade, F: southern crabgrass",southern crabgrass [4],0 (Herbicidal rate of 5% or less (almost no effect))
same,"herbicidal effect grade, H: barnyard grass",barnyard grass [5],3 (Herbicidal rate of 40% or more and less than 70%)
same,"herbicidal effect grade, R: persian speedwell",persian speedwell [6],2 (Herbicidal rate of 20% or more and less than 40%)
same,"herbicidal effect rating, O: lambsquarters",lambsquarters [7],3 (Herbicidal rate of 40% or more and less than 70%)
same,"herbicidal effect grade, L: windgrass",windgrass [8],4 (Herbicidal rate of 70% or more and less than 90%)
same,"herbicidal effect rating, R: persian speedwell",persian speedwell [9],0 (Herbicidal rate of 5% or less (almost no effect))
same,"herbicidal effect rating, F: southern crabgrass",southern crabgrass [10],0 (Herbicidal rate of 5% or less (almost no effect))
same,"herbicidal effect grade, I: wild oat",wild oat [11],2 (Herbicidal rate of 20% or more and less than 40%)
same,Herbicidal effect on B: Japanese bulrush (grade 0-5),Japanese bulrush,2 (Herbicidal rate of 20% or more and less than 40%)
same,"herbicidal effect grade, N: redroot pigweed",redroot pigweed [12],3 (Herbicidal rate of 40% or more and less than 70%)
same,"herbicidal effect grade, J: blackgrass",blackgrass [13],3 (Herbicidal rate of 40% or more and less than 70%)
same,"herbicidal effect rating, L: windgrass",windgrass [14],3 (Herbicidal rate of 40% or more and less than 70%)
same,"herbicidal effect grade, M: velvetleaf",velvetleaf [15],2 (Herbicidal rate of 20% or more and less than 40%)
same,"herbicidal effect on E (rice flat sedge), rating 0-5",rice flat sedge,5 (Herbicidal rate of 90% or more (almost completely withered))
same,"herbicidal effect grade, G: green foxtail",green foxtail [16],2 (Herbicidal rate of 20% or more and less than 40%)
same,Herbicidal effect on C: oval-leafed pondweed (grade 0-5),oval-leafed pondweed,1 (Herbicidal rate of 5% or more and less than 20%)
same,"herbicidal effect rating, H: barnyard grass",barnyard grass [17],3 (Herbicidal rate of 40% or more and less than 70%)
same,"herbicidal effect on H (barnyard grass), rating 0-5",barnyard grass [18],3 (Herbicidal rate of 40% or more and less than 70%)
same,Herbicidal effect on A: late watergrass (grade 0-5),late watergrass,3 (Herbicidal rate of 40% or more and less than 70%)
same,"herbicidal effect grade, P: chickweed",chickweed [19],5 (Herbicidal rate of 90% or more (almost completely withered))
same,"herbicidal effect rating, G: green foxtail",green foxtail [20],3 (Herbicidal rate of 40% or more and less than 70%)
same,"herbicidal effect rating, M: velvetleaf",velvetleaf [21],0 (Herbicidal rate of 5% or less (almost no effect))
same,"herbicidal effect rating, I: wild oat",wild oat [22],0 (Herbicidal rate of 5% or less (almost no effect))
same,"herbicidal effect rating, P: chickweed",chickweed [23],0 (Herbicidal rate of 5% or less (almost no effect))
same,"herbicidal effect grade, O: lambsquarters",lambsquarters [24],3 (Herbicidal rate of 40% or more and less than 70%)
same,"herbicidal effect rating, N: redroot pigweed",redroot pigweed [25],0 (Herbicidal rate of 5% or less (almost no effect))
